Measured values as given in patent US12473305B2, “Pyrazole boronic acid compound, pharmaceutical composition containing same, and uses thereof” (BEIJING SONGRUN PHARMACEUTICAL TECHNOLOGY CO., LTD., priority 2020, dated 2025).
Blank lines part the entries; values can stand above or below the compound they belong to.

Assays:
[1] = Maximum tolerated dose in mice; assay type: in vivo; settings: for body weight (M ± S.E.): in g (unit assumed)
Description: Healthy non-tumor bearing female NOD/SCID mice (purchased from Sipeifu Biotechnology Co., Ltd.) were selected for the Maximum Tolerated Dose (MTD) test. Compound 39 was administered to NOD/SCID mice directly through a single tail vein injection, and the vehicle (0.3 mL DMSO, 0.27 mL Tween-80, 2.43 mL normal saline) was used as the control group. According to the dose of compound 39, the administration group was divided into three groups: low-dose group (10 mg/kg), medium-dose group (20 mg/kg), and high-dose group (30 mg/kg), with seven mice in each group.

PC3 = assay: MTT antitumor spectrum, PC3; assay type: cell-based; settings: Homo sapiens, PC-3, 72 h
Description: (§1) The activity of compound 30 was evaluated by MTT method against seven tumor cell models, A549, A375, HCT116, MDA-MB-231, HepG2, PC3 and MCF-7. All cells used in the study were prepared at a concentration of 3.5×10^3 cells/mL, and each […] cell suspension was inoculated on a 96-well microtiter plate for 24 hours (37° C., 5% CO2). Then different concentrations of compound 30 were added, incubated for 72 hours; and for the control group, equivalent concentrations of DMSO (final concentration 0.5%) were added. The number of viable cells was measured by MTT (3-(4,5-dimethylthiazol-2-yl)-diphenyl tetrazolium bromide) method, and the OD value at 492/620 nm was recorded. The IC50 value was calculated by Prism-Graphpad software based on the results of triplicate experiments.

A549 = assay: MTT antitumor spectrum, A549; assay type: cell-based; settings: Homo sapiens, 72 h
Description: as §1

MCF-7 = assay: MTT antitumor spectrum, MCF-7; assay type: cell-based; settings: Homo sapiens, MCF7, 72 h
Description: as §1

[2] = biological target: T1, 20S proteasome β1 subunit (Homo sapiens, UniProt P28072+Q99436); assay: Proteasome-Glo Cell-Based assay in K562 cells, β1 subunit; settings: 2 h incubation
T1 construct: endogenous in cells; host or cells: K562
Description: Proteasome-Glo™ Cell-Based assay kit (Promega, USA) was used to determine the activity of the target compound against the 20S proteasome. Human chronic myeloid leukemia cell line (K562, 6000 cells/well) was inoculated into the 384 well plate in 20 μL/well. The cells were then equilibrated at 37° C., 5% CO2 for 2 hours. Each 384 well plate was set with the mock group and treatment group, and each well of the treatment group was added with 5 μL of the compound solution with the final concentration of 40 μM, 13.3 μM, 4.44 μM, 1.48 μM, 0.49 μM, 0.16 μM, 0.055 μM, 0.0183 μM, […], 0.0061 μM. The cells was incubated with the drugs for 2 hours at 37° C., 5% CO2 before adding 25 μL of corresponding Proteasome-Glo™ Cell-Based reagent per well. The relative luminescence unit (RLU) was measured by using Multimode Microplate Reader Varioskan Flash (Thermo Scientific, USA) after 15 min and compared with the RLU of the control group. SigmaPlot 10.0 software was used to calculate IC50 value.

[3] = test system: non-small cell lung cancer cell line A549; assay: CellTiter-Glo tumor cell proliferation, A549; assay type: cell-based, human; settings: Homo sapiens, A549; CellTiter-Glo, 72 h
How it was run: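 Cells seeded at 2×10^4/mL, grown 24 h at 37° C, 5% CO2, then treated in triplicate with medium-diluted compound for 72 h. CellTiter-Glo luminescence read after 20 min at 37° C; inhibition versus untreated control RLU, IC50 calculated.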

Compound: CC(C)C[C@H](NC(=O)Cn1nc(-c2cccc(OCCN3CCN(c4ccccc4)CC3)c2)cc1-c1ccccc1)B(O)O.Cl [Compound 39, (R)-(3-methyl-1-(2-(5-phenyl-3-(3-(2-(4-phenylpiperazin-1-yl)ethoxy)phenyl)-1H-pyrazol-1-yl)acetamido)butyl)boronic acid hydrochloride]
body weight (M ± S.E.) ([1]; High-dose 30 mg/kg single tail vein injection, Day 0 (day before administration)): 24.2 ± 0.5 | body weight (M ± S.E.) ([1]; High-dose 30 mg/kg single tail vein injection, Day 1): 24.0 ± 0.5 | body weight (M ± S.E.) ([1]; High-dose 30 mg/kg single tail vein injection, Day 2): 22.4 ± 0.6 | body weight (M ± S.E.) ([1]; High-dose 30 mg/kg single tail vein injection, Day 3): 22.5 ± 0.6 | body weight (M ± S.E.) ([1]; High-dose 30 mg/kg single tail vein injection, Day 4): 22.7 ± 0.7 | body weight (M ± S.E.) ([1]; High-dose 30 mg/kg single tail vein injection, Day 5): 22.9 ± 0.6 | body weight (M ± S.E.) ([1]; High-dose 30 mg/kg single tail vein injection, Day 6): 22.5 ± 0.6 | body weight (M ± S.E.) ([1]; High-dose 30 mg/kg single tail vein injection, Day 7): 23.1 ± 0.4 | body weight (M ± S.E.) ([1]; Low-dose 10 mg/kg single tail vein injection, Day 0 (day before administration)): 24.2 ± 0.8 | body weight (M ± S.E.) ([1]; Low-dose 10 mg/kg single tail vein injection, Day 1): 24.5 ± 0.8 | body weight (M ± S.E.) ([1]; Low-dose 10 mg/kg single tail vein injection, Day 2): 23.3 ± 1.1 | body weight (M ± S.E.) ([1]; Low-dose 10 mg/kg single tail vein injection, Day 3): 23.4 ± 1.0 | body weight (M ± S.E.) ([1]; Low-dose 10 mg/kg single tail vein injection, Day 4): 23.7 ± 1.1 | body weight (M ± S.E.) ([1]; Low-dose 10 mg/kg single tail vein injection, Day 5): 24.1 ± 1.0 | body weight (M ± S.E.) ([1]; Low-dose 10 mg/kg single tail vein injection, Day 6): 24.4 ± 0.8 | body weight (M ± S.E.) ([1]; Low-dose 10 mg/kg single tail vein injection, Day 7): 24.7 ± 0.7 | body weight (M ± S.E.) ([1]; Medium-dose 20 mg/kg single tail vein injection, Day 0 (day before administration)): 24.7 ± 0.2 | body weight (M ± S.E.) ([1]; Medium-dose 20 mg/kg single tail vein injection, Day 1): 24.1 ± 0.5 | body weight (M ± S.E.) ([1]; Medium-dose 20 mg/kg single tail vein injection, Day 2): 22.8 ± 0.4 | body weight (M ± S.E.) ([1]; Medium-dose 20 mg/kg single tail vein injection, Day 3): 22.7 ± 0.4 | body weight (M ± S.E.) ([1]; Medium-dose 20 mg/kg single tail vein injection, Day 4): 22.8 ± 0.5 | body weight (M ± S.E.) ([1]; Medium-dose 20 mg/kg single tail vein injection, Day 5): 23.3 ± 0.6 | body weight (M ± S.E.) ([1]; Medium-dose 20 mg/kg single tail vein injection, Day 6): 23.7 ± 0.7 | body weight (M ± S.E.) ([1]; Medium-dose 20 mg/kg single tail vein injection, Day 7): 24.0 ± 0.7 | average body weight change of mice ([1]; doses of 30 mg/kg or less, single tail vein injection): not more than 5% | MTD at 7 days ([1]; female, NOD/SCID, mouse, in vivo, single tail vein injection, 7 days observation, read-out: dose safe to be administered (maximum tolerated dose test)): ≤ 30 mg/kg

IC50 (PC3): 0.82 µM | IC50 (A549): 3.05 µM | IC50 (MCF-7): 0.69 µM | IC50 [2]: 2.04 µM | IC50 [3]: 3.05 µM
Compound: CC(C)C[C@H](NC(=O)Cn1nc(-c2cccc(OCCN3CCOCC3)c2)cc1-c1ccccc1)B(O)O.Cl [Compound 30, (R)-(3-methyl-1-(2-(3-(3-(2-morpholinoethoxy)phenyl)-5-phenyl-1H-pyrazol-1-yl)-acetamido)butyl)boronic acid hydrochloride]
